Test results: patent US20240050582A1, “CONJUGATES INCLUDING MULTIPLE SACCHARIDIC CHAINS ON A LINEAR PROTEIN AND USES IN MAMMALS FEED” (UNIVERSITEIT GENT, priority 2021, published 2024)
Like-named read-outs stand apart in the source and are kept apart here. Marks after values point to notes of the source that are not given here.

Legend:
[1] = system: F18+ E. coli (strain 107/86); conditions: for Conjugate inhibition (M) / M − C (measure of the specific blockage of F18 fimbriae by A6) / Optimal inhibitory dose: A6 supplied via the conjugate / Optimal inhibitory dose: Carrier supplied via the conjugate: Table 9; for Conjugate inhibition (M): A6-1 conjugate of the carrier, at its optimal inhibitory dose; for M − C (measure of the specific blockage of F18 fimbriae by A6): difference conjugate inhibition minus carrier inhibition; for Optimal inhibitory dose: A6 supplied via the conjugate / Optimal inhibitory dose: Carrier supplied via the conjugate: in vitro; for Average % inhibition: free A6-1 10 mg/ml (positive control)
F18 E. coli [2] = experiment: Part E: intestinal morphology; conditions: linear
F18 E. coli [3] = type: in vivo, pig; conditions: compared with positive control; P<0.05
[4] = system: F18ac bacteria 2134P (STa+ STb+); experiment: In vivo small intestinal segment perfusion model (SISP); parameters: species or system pig
F18 E. coli [5] = experiment: Part E: bacterial translocation in lymph nodes and spleen; conditions: AGP
β-hemolytic coliforms = type: in vivo, pig; conditions: AGP (50 mg/kg carbadox)
F18+ E. coli = experiment: Blocking assay with fluorescein conjugated A6-1 monomers; type: binding, Escherichia coli; conditions: pre-incubation 1 h; actual A6-1 12 μg/ml (CMCL, CMCM), 120 μg/ml (polylysine); monomeric A6-1 1 mg/ml
Description: A blocking assay was developed to understand inhibition. In this assay, F18+E. coli were first incubated for one hour at room temperature with either the carriers or A6-1 conjugates, while gently shaking. Concentrations used were chosen so that the actual A6-1 concentration was 12 μg/ml for A6-1 conjugated carriers CMCM and CMCL (and the similar concentration of non-conjugated carriers) or 120 μg/ml for the A6-1 conjugated carrier polylysine (A6-1-PL-14). […] Subsequently, fluorescein conjugated A6-1 monomers (A6-F) were added (1 mg/ml) for one hour at room temperature. The fluorescing oligosaccharide was labeled at the reducing end of the molecule with fluorescein (also named 6A1-FITC). Next free A6-1-fluorescein was washed away with PBS followed by centrifugation at 2000 g for 5 min and resuspensions of the pellet with PBS. This was repeated twice.
If carriers without A6-1 bind to the bacteria, they will block the binding of A6-F and no fluorescence-bound bacteria can be detected by fluorescence microscopy. If there is no binding of the carrier to the bacteria in the first step of the test, fluorescing bacteria will be seen. […]
As aforementioned, high non-AG based inhibition of most carriers was observed. […] Subsequently, fluorescence conjugated AG-1 monomers (AG-1-F) were added and binding of the fluorescing AG-1 to the bacteria was determined using a fluorescence microscope.

[6] = d 5 PI, compared with the control, P<0.05

Alginate [reference compound]
Conjugate inhibition (M) [1]: 41% | M − C (measure of the specific blockage of F18 fimbriae by A6) [1]: −15% | Optimal inhibitory dose: A6 supplied via the conjugate [1]: 0.6 µg/mL | Optimal inhibitory dose: Carrier supplied via the conjugate [1]: 0.081 mg/mL

Pectin [reference compound]
Conjugate inhibition (M) [1]: 64% | M − C (measure of the specific blockage of F18 fimbriae by A6) [1]: −5% | Optimal inhibitory dose: A6 supplied via the conjugate [1]: 1.2 µg/mL | Optimal inhibitory dose: Carrier supplied via the conjugate [1]: 0.25 mg/mL

CNCCCCC(CNCCCCC(N)C(=O)NCCCCC(N)C(C)=O)NCC(O)C(O)C(O[C@@H]1OC(CO)[C@H](O)C(O[C@@H]2OC(CO)[C@@H](O)C(O[C@@H]3OC(CO)[C@H](O)C(O[C@H]4OC(CO)[C@H](O)C(O)C4NC(C)=O)C3O[C@@H]3OC(C)[C@@H](O)C(O)C3O)C2NC(C)=O)C1O)C(O)CO (stereo partly drawn) [Coligo A6PL]
ratio of villi height to crypt depth in jejunum (F18 E. coli [2]; [6]): enhanced | villi height, ratio of villi height to crypt depth, and villi area in ileum (F18 E. coli [2]; [6]): increased | villi height, ratio of villi height to crypt depth, villi width, and villi area in duodenum (F18 E. coli [2]; [6]): dose-dependently increased | ratio of villi height to crypt depth in jejunum and ileal villi height (F18 E. coli [2]; d 11 PI, P<0.10): tended to increase | feed efficiency from d 0 to 5 PI (F18 E. coli [3]): enhanced | net absorption of perfusion fluid ([4]; 2 μg/ml actual A6-1 (A6-1-PL-14), segment number 4): +0.03 g/cm^2 | net absorption of perfusion fluid ([4]; 8 μg/ml actual A6-1 (A6-1-PL-14), segment number 5): +0.21 g/cm^2 | net absorption of perfusion fluid ([4]; 32 μg/ml actual A6-1 (number 6) or the same concentration of polylysine (number 8)): 0 g/cm^2

COC(=O)N/N=C/c1c[n+]([O-])c2ccccc2[n+]1[O-] [AGP, carbadox]
Bacterial translocation, Lymph node (F18 E. coli [5]; d 5 PI): 147^ab cfu/g | Bacterial translocation, Spleen (F18 E. coli [5]; d 5 PI): 47 cfu/g | Bacterial translocation, Lymph node (F18 E. coli [5]; d 11 PI): 279^ab cfu/g | Bacterial translocation, Spleen (F18 E. coli [5]; d 11 PI): 56^b cfu/g | percentage of β-hemolytic coliform (β-hemolytic coliforms; d 2 PI): 31.56^b % | percentage of β-hemolytic coliform (β-hemolytic coliforms; d 5 PI): 8.79^b % | percentage of β-hemolytic coliform (β-hemolytic coliforms; d 8 PI): 2.77^b % | percentage of β-hemolytic coliform (β-hemolytic coliforms; d 11 PI): 2.10%

CC(=O)N[C@H]1[C@@H](O[C@H]2[C@@H](O)[C@@H](CO)O[C@@H](O[C@H]3[C@H](O)[C@@H](CO)O[C@@H](O[C@H]4[C@@H](O)[C@@H](CO)O[C@@H](O[C@H]5[C@H](O)[C@@H](O)C(O)O[C@@H]5CO)[C@@H]4O)[C@@H]3NC(C)=O)[C@@H]2O[C@@H]2O[C@@H](C)[C@@H](O)[C@@H](O)[C@@H]2O)O[C@H](CO)[C@H](O)[C@@H]1O (stereo partly drawn) [A6-1, GalNAcα1-3(Fucα1-2)Galβ1-3GlcNAcβ1-3Galβ1-4Glc, reference compound]
fluorescence of bacteria after A6-1-fluorescein (blocking of A6-F binding) (F18+ E. coli): completely abolished fluorescence | Average % inhibition ([1]; Table 8-A): 71.3% | Average % inhibition ([1]; Table 8-B CMCL type 1): 69.5% | Average % inhibition ([1]; Table 8-B CMCL type 2): 57.05% | Average % inhibition ([1]; Table 8-C CMCM type 1): 63.6% | Average % inhibition ([1]; Table 8-C CMCM type 2): 61.26%
